US20210087206A1, “MACROCYCLIC KINASE INHIBITORS AND THEIR USE” (TURNING POINT THERAPEUTICS, INC., priority 2017, published 2021)

Tests used:
Experiment in all cases: Cell proliferation assay (CellTiter-Glo)
Format in all cases: cell-based
[1] = target: T1, BaF3 EML4-ALK (Homo sapiens, UniProt Q9UM73); conditions: anti-cell proliferation, 72 hours
T1 construct: The EML4-ALK gene (variant 1) was synthesized at GenScript and cloned into pCDH-CMV-MCS-EF1-Puro plasmid (System Biosciences, Inc); fused on or other part: EML4 N-terminal part (variant 1: exons 1-13, with the coiled-coil that oligomerises the fusion) fused to the intracellular part of ALK, which contains the kinase domain; Q9HC35 (Echinoderm microtubule-associated protein-like 4)
How it was run: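 Ba/F3 cells were lentivirally transduced with EML4-ALK variant 1 and selected for puromycin resistance and IL-3-independent growth. Proliferation was measured by CellTiter-Glo ATP luminescence to give IC50.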

[2] = tested on: KG-1 cell (OP2-FGFR1); conditions: Homo sapiens, anti-cell proliferation, 72 hours
How it was run: (§1)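 Cells seeded 24 h, then exposed to compounds for 72 h at 37° C., 5% CO2. Proliferation read by CellTiter-Glo luminescent ATP detection; IC50 from dose-response fits.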

[3] = tested on: KM12 (TPM3-TRKA); conditions: Homo sapiens, anti-cell proliferation, 72 hours
How it was run: as §1

T1 sequence (Q9UM73 whole entry, stated change not applied, the tested form may be a part): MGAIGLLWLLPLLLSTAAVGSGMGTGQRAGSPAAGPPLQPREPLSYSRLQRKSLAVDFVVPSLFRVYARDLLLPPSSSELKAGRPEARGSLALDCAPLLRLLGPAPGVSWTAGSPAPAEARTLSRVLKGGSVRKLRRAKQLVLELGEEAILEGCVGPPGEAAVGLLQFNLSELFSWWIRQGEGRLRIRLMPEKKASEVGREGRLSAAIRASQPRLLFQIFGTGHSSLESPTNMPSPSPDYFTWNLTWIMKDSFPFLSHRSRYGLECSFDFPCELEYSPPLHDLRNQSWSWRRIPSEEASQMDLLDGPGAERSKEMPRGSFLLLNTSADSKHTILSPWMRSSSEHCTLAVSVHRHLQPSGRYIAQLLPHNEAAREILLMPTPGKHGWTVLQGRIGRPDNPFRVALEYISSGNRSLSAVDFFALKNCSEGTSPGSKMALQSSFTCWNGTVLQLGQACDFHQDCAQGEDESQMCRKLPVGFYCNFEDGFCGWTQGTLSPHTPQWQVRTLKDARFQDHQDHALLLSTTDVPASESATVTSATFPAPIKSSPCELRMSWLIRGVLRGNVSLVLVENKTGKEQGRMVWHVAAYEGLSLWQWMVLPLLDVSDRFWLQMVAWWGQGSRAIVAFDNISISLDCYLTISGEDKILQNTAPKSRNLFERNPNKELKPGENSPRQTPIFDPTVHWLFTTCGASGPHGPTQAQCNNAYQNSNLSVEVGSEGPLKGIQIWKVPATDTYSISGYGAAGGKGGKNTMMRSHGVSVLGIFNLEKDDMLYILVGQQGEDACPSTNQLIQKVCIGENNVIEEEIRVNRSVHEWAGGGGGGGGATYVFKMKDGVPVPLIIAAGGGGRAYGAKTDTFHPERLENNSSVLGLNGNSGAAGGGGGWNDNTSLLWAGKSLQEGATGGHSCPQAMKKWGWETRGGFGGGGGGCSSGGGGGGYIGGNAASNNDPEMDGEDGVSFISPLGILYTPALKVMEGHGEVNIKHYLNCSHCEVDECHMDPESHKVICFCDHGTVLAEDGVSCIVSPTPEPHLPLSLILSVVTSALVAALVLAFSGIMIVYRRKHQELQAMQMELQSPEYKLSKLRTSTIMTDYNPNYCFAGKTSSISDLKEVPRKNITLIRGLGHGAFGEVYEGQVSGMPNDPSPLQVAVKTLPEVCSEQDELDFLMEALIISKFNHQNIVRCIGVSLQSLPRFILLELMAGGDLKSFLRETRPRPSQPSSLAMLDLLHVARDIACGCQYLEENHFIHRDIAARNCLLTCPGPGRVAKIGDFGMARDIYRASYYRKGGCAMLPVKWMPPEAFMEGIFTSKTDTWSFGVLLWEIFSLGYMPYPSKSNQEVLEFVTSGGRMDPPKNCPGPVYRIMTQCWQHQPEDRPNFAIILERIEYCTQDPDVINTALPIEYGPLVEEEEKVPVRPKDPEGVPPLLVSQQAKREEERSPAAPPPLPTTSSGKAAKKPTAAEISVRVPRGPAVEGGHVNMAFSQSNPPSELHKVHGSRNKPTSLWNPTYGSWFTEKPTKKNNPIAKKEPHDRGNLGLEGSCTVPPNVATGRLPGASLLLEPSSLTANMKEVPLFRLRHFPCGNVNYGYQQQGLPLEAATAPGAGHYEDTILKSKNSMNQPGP

SMILES	IC50 [1]	IC50 [2]	IC50 [3]
C[C@@H]1COc2ncc(F)cc2[C@@H](C)N2c3nc4c(cnn4cc3OC[C@H]2C)C(=O)N1 [Compound 83, (4R,6R,13R)-8-fluoro-4,6,13-trimethyl-3,4,13,14-tetrahydro-6H-18,1-(metheno)[1,4]oxazino[3,4-i]pyrazolo[4,3-f]pyrido[3,2-l][1,4,8,10]oxatriazacyclotridecin-15(12H)-one]	139 nM	30.2 nM	< 0.2 nM
C[C@@H]1COc2ncc(F)cc2[C@H](C)N2c3nc4c(cnn4cc3OC[C@H]2C)C(=O)N1 [Compound 84, (4R,6S,13R)-8-fluoro-4,6,13-trimethyl-3,4,13,14-tetrahydro-6H-18,1-(metheno)[1,4]oxazino[3,4-i]pyrazolo[4,3-f]pyrido[3,2-l][1,4,8,10]oxatriazacyclotridecin-15(12H)-one]	366 nM	130 nM	< 0.2 nM
C[C@@H]1COc2cn3ncc4c3nc2N1Cc1cc(F)cnc1O[C@@H]1CC[C@@H](C1)NC4=O [Compound 86, (6S,9R,17R)-13-fluoro-17-methyl-6,7,8,9,17,18-hexahydro-15H-6,9-methano-1,20-(metheno)[1,4]-oxazino[4,3-e]pyrazolo[3,4-h]-pyrido[2,3-b][1,5,7,11]oxatriaza-cyclopentadecin-4(5H)-one]	7.3 nM	2.7 nM	< 0.2 nM
C[C@@H]1COc2cn3ncc4c3nc2N1Cc1cc(F)cnc1O[C@H]1CC[C@H](C1)NC4=O [Compound 87, (6R,9S,17R)-13-fluoro-17-methyl-6,7,8,9,17,18-hexahydro-15H-6,9-methano-1,20-(metheno)[1,4]-oxazino[4,3-e]pyrazolo[3,4-h]-pyrido[2,3-b][1,5,7,11]oxatriaza-cyclopentadecin-4(5H)-one]	15 nM	17.5 nM	< 0.2 nM
C[C@@H]1COc2ncc(F)cc2CN2C[C@@H](O)COc3cn4ncc(c4nc32)C(=O)N1 [Compound 88, (4R,14R)-9-fluoro-4-hydroxy-14-methyl-4,5,14,15-tetrahydro-3H,7H-19,1-(metheno)[1,4]-oxazepino[3,4-i]pyrazolo[4,3-f]pyrido[3,2-l][1,4,8,10]oxatriaza-cyclotridecin-16(13H)-one]	5000 nM	3000 nM	3.1 nM
CO[C@@H]1COc2cn3ncc4c3nc2N(Cc2cc(F)cnc2O[C@@H](C)CNC4=O)C1 [Compound 91, (4S,13S)-9-fluoro-4-methoxy-13-methyl-4,5,14,15-tetrahydro-3H,7H-19,1-(metheno)[1,4]oxazepino[3,4-i]pyrazolo[4,3-f]pyrido[3,2-1][1,4,8,10]oxatriazacyclotridecin-16(13H)-one]	234 nM	990 nM	64.2 nM
C[C@H]1CNC(=O)c2cnn3cc4c(nc23)N(Cc2cc(F)cnc2O1)C[C@@H](F)CO4 [Compound 93, (4R,13S)-4,9-difluoro-13-methyl-4,5,14,15-tetrahydro-3H,7H-19,1-(metheno)[1,4]oxazepino[3,4-i]-pyrazolo[4,3-f]pyrido[3,2-l] [1,4,8,10]oxatriazacyclotridecin-16(13H)-one]	> 10000 nM	> 10000 nM	189 nM
C[C@@H]1COc2cn3ncc4c3nc2N1Cc1cc(F)cnc1OCCC1(CCC1)NC4=O [Compound 96, (16′R)-12′-fluoro-16′-methyl-4′H,5′H,7′H,8′H,14′H,16′H,17′H-spiro[cyclobutane-1,6′-[9,18]-dioxa[1,2,5,10,15,20]hexaaza-[1,19](metheno)[1,4]oxazino-[4,3-e]pyrazolo[3,4-h]pyrido[2,3-b][1,5,7,11]oxatriazacyclotetra-decin]-4′-one]	349 nM	500 nM	< 0.2 nM

Continued, in another order:

IC50 [1]	SMILES	IC50 [2]	IC50 [3]
33 nM	C[C@@H]1COc2cn3ncc4c3nc2N1Cc1cc(F)cnc1OC[C@@H](F)CNC4=O [Compound 78, (7S,16R)-7,12-difluoro-16-methyl-5,6,7,8,16,17-hexahydro-4H,14H,- 1,19-(metheno)[1,4]oxazino[4,3-e]pyrazolo[3,4-h]pyrido[2,3-b] [1,5,7,11]oxatriazacyclotetradecin-4-one]	10.2 nM	< 0.2 nM
31.7 nM	C[C@@H]1COc2cn3ncc4c3nc2N1Cc1cc(F)cnc1OCC(F)(F)CNC4=O [Compound 79, (16R)-7,7,12-trifluoro-16-methyl-5,6,7,8,16,17-hexahydro-4H,14H-1,19-(metheno)[1,4]oxazino[4,3-e]pyrazolo[3,4-h]pyrido[2,3-b][1,5,7,11]oxatriazacyclotetra-decin-4-one]	9.9 nM	< 0.2 nM
134 nM	C[C@@H]1COc2cn3ncc4c3nc2N1Cc1cc(F)cnc1OC[C@H](F)CNC4=O [Compound 80, (7R,16R)-7,12-difluoro-16-methyl-5,6,7,8,16,17-hexahydro-4H,14H-1,19-(metheno)[1,4]-oxazino[4,3-e]pyrazolo[3,4-h]pyrido[2,3-b][1,5,7,11]oxa-triazacyclotetradecin-4-one]	44.4 nM	< 0.2 nM
657 nM	C[C@@H]1COc2cn3ncc4c3nc2N1Cc1cc(F)cnc1OC[C@H](CO)NC4=O [Compound 82, (4R,13S)-8-fluoro-13-(hydroxy-methyl)-4-methyl-3,4,13,14-tetrahydro-6H-18,1-(metheno)-[1,4]oxazino[3,4-i]pyrazolo[4,3-f]pyrido[3,2-l][1,4,8,10]oxatriaza-cyclotridecin-15(12H)-one]	37.3 nM	< 0.2 nM
12.7 nM	C[C@@H]1COc2cn3ncc4c3nc2N1Cc1cc(F)cnc1OC[C@@H](C(F)(F)F)NC4=O [Compound 85, (4R,13S)-8-fluoro-4-methyl-13-(trifluoromethyl)-3,4,13,14-tetrahydro-6H-18,1-(metheno)-[1,4]oxazino[3,4-i]pyrazolo[4,3-f]pyridol[3,2-l][1,4,8,10]oxatriaza-cyclotridecin-15(12H)-one]	17.3 nM	< 0.2 nM
1890 nM	C[C@@H]1COc2cn3ncc4c3nc2N1Cc1cc(F)cnc1OC[C@H](O)CNC4=O [Compound 89, (7R,16R)-12-fluoro-7-hydroxy-16-methyl-5,6,7,8,16,17-hexa-hydro-4H,14H-1,19-(metheno)-[1,4]oxazino[4,3-e]pyrazolo[3,4-h]pyrido[2,3-b][1,5,7,11]oxatriaza-cyclotetradecin-4-one]	394 nM	< 0.2 nM
2000 nM	COC[C@H]1COc2ncc(F)cc2CN2c3nc4c(cnn4cc3OC[C@H]2C)C(=O)N1 [Compound 92, (4R,13S)-8-fluoro-13-(methoxy-methyl)-4-methyl-3,4,13,14-tetrahydro-6H-18,1-(metheno)-[1,4]oxazino[3,4-i]pyrazolo[4,3-f]pyrido[3,2-l][1,4,8,10]oxatriaza-cyclotridecin-15(12H)-one]	328 nM	5.7 nM
16.6 nM	C[C@@H]1COc2cn3ncc4c3nc2N1Cc1cc(F)cnc1O[C@H]1C[C@H](C1)NC4=O [Compound 95, (6S,8s,16R)-12-fluoro-16-methyl-5,6,7,8,16,17-hexahydro-4H,14H-6,8-methano-1,19-(metheno)[1,4]-oxazino[4,3-e]pyrazolo[3,4-h]-pyrido[2,3-b][1,5,7,11]oxatriaza-cyclotetradecin-4-one]	14.1 nM	< 0.2 nM
